# Target: T1, EBV DNase (BGLF5) (Epstein-barr virus strain ag876, UniProt Q1HVE7)
# T1 construct: full-length wild-type, 470 amino acids; pET-15b His-tag; E. coli BL21(DE3) pLysS
# Assay: PicoGreen fluorescence nuclease activity assay
# Assay type: biochemical
# T1 sequence (Q1HVE7 whole entry): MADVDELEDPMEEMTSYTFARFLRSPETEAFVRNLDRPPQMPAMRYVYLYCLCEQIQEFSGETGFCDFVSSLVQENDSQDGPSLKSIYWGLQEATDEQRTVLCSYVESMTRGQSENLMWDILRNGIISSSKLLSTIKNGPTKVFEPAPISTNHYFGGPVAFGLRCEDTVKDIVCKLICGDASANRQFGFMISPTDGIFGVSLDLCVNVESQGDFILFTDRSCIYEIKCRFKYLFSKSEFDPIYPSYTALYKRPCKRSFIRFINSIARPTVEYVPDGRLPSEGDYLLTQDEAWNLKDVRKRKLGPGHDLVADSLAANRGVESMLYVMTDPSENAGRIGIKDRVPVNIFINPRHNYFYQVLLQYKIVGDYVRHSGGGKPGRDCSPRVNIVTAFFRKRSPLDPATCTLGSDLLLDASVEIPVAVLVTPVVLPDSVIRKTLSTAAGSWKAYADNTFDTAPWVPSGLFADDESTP
row,SMILES,IC50
1,O=c1c(O)c(-c2ccc(O)cc2)oc2cc(O)cc(O)c12 [Kaempferol],69 µM
2,C=CCSSCC=C [diallyl disulfide],> 100 µM
3,Cc1cc(O)c2c(c1)C(=O)c1cc(O)cc(O)c1C2=O [emodin],31 µM
4,O=C(O[C@@H]1Cc2c(O)cc(O)cc2O[C@@H]1c1cc(O)c(O)c(O)c1)c1cc(O)c(O)c(O)c1 [epigallocatechin gallate],89 µM
5,C[S@@+]([O-])CCCCN=C=S [sulforaphane],> 100 µM
